From US9765067B2, “Thiophen-2-yl-pyridin-2-yl-1H-pyrazole-4-carboxylic acid derivatives and the use thereof as soluble guanylate cyclase activators” (Novartis AG, priority 2014, dated 2017)

Each compound was assayed against T1, soluble guanylate cyclase (human GUCYA3/GUCYB3) overexpressed in CHO cells (Homo sapiens, UniProt Q02108+Q02153) (assay: CHO cellular assay (cGMP production, HTRF)). Conditions: CHO K1 clone 8E10 overexpressing human sGC, Cisbio HTRF, 1 h room temperature, 1 mM IBMX, 20 uM ODQ, minimum quantification limit 0.5 nM.
T1 construct: expressed in transfected cells
T1 sequence (Q02108 1-690 partner): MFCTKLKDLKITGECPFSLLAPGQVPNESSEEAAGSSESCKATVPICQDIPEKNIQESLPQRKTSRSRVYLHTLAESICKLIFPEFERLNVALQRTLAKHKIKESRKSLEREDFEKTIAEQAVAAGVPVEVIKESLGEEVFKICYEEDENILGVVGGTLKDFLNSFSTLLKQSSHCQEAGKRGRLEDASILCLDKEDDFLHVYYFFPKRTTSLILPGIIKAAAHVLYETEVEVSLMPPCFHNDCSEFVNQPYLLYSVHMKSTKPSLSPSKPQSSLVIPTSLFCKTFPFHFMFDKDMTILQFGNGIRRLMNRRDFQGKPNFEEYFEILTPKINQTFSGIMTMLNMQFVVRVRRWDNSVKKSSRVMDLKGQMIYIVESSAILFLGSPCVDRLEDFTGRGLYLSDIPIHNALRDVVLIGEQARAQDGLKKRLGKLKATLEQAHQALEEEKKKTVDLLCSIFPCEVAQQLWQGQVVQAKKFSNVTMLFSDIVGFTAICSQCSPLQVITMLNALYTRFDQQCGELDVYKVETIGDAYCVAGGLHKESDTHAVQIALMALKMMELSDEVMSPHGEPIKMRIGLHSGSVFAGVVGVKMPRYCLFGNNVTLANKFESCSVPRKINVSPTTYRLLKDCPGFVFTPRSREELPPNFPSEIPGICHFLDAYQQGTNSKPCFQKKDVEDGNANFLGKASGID
T1 sequence (Q02153 1-619): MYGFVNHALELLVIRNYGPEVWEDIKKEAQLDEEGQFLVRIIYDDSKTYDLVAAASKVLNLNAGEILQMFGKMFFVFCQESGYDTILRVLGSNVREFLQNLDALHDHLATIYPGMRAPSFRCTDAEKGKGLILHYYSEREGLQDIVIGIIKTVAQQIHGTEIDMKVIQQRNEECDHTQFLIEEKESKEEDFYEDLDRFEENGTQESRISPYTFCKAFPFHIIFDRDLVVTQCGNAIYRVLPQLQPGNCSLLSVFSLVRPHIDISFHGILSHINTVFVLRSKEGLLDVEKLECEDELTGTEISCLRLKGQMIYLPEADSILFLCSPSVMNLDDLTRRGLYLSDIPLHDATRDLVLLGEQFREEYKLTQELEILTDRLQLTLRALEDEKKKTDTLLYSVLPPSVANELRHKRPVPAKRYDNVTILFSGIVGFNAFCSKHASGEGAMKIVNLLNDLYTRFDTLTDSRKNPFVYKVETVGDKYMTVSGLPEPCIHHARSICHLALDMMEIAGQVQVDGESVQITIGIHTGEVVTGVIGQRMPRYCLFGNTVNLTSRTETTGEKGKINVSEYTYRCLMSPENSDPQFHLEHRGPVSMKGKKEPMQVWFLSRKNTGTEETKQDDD
Format: cell-based
Procedure, shortened: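 Stable CHO K1 clone expressing human GUCYA3/GUCYB3. Compounds applied 1 h at room temperature in HBSS, 0.1% BSA, 1 mM IBMX, 20 uM ODQ, 0.5% DMSO. cGMP measured by HTRF and interpolated from a standard curve; EC50 from 4-parameter sigmoidal fit.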

Q: For `Cc1cc(C2CCN(C(=O)C3CC3)CC2)ccc1OCc1cc(C(C)C)sc1-c1cccc(-n2ncc(C(=O)O)c2C(F)(F)F)n1` [Example 35-1, 1-(6-(3-((4-(1-(Cyclopropanecarbonyl)piperidin-4-yl)-2-methylphenoxy)methyl)-5-isopropylthiophen-2-yl)pyridin-2-yl)-5-(trifluoromethyl)-1H-pyrazole-4-carboxylic acid], which EC50 is on record?
A: 96 nM

Q: How did the EC50 turn out when `CCC(=O)N1CCC(c2ccc(OCc3cc(C(C)C)sc3-c3cccc(-n4ncc(C(=O)O)c4C(F)(F)F)n3)c(C)c2)CC1` [Example 35-2, 1-(6-(5-Isopropyl-3-((2-methyl-4-(1-propionylpiperidin-4-yl)phenoxy)methyl)thiophen-2-yl)pyridin-2-yl)-5-(trifluoromethyl)-1H-pyrazole-4-carboxylic acid] was run?
A: 678 nM

Q: `CCCc1cc(COc2ccc(C3CCN(C(=O)CC)CC3)cc2C)c(-c2cccc(-n3ncc(C(=O)O)c3C(F)(F)F)n2)s1` [Example 35-3, 1-(6-(3-((2-Methyl-4-(1-propionylpiperidin-4-yl)phenoxy)methyl)-5-propylthiophen-2-yl)pyridin-2-yl)-5-(trifluoromethyl)-1H-pyrazole-4-carboxylic acid] was tested. Which EC50 did it give?
A: 195 nM

Q: Which EC50 does the source give for `Cc1cc(COc2ccc(C3CCN(C(=O)C4CC4)CC3)c(C)c2)c(-c2cccc(-n3ncc(C(=O)O)c3C(F)(F)F)n2)s1` [Example 35-4, 1-(6-(3-((4-(1-(Cyclopropanecarbonyl)piperidin-4-yl)-3-methylphenoxy)methyl)-5-methylthiophen-2-yl)pyridin-2-yl)-5-(trifluoromethyl)-1H-pyrazole-4-carboxylic acid] here?
A: 2 nM

Q: How did the EC50 turn out when `Cc1cc(OCc2ccsc2-c2cccc(-n3ncc(C(=O)O)c3C(F)(F)F)n2)ccc1C1CCN(C(=O)C2CC2)CC1` [Example 35-5, 1-(6-(3-((4-(1-(Cyclopropanecarbonyl)piperidin-4-yl)-3-methylphenoxy)methyl)thiophen-2-yl)pyridin-2-yl)-5-(trifluoromethyl)-1H-pyrazole-4-carboxylic acid] was run?
A: 3 nM

Q: With `CCc1cc(OCc2cc(C)sc2-c2cccc(-n3ncc(C(=O)O)c3C(F)(F)F)n2)ccc1C1CCN(C(=O)N(C)C)CC1` [Example 35-7, 1-(6-(3-((4-(1-(Dimethylcarbamoyl)piperidin-4-yl)-3-ethylphenoxy)methyl)-5-methylthiophen-2-yl)pyridin-2-yl)-5-(trifluoromethyl)-1H-pyrazole-4-carboxylic acid] as the compound, how does the EC50 read?
A: ≤ 0.5 nM

Q: How did the EC50 turn out when `CCc1cc(OCc2cc(C)sc2-c2cccc(-n3ncc(C(=O)O)c3C)n2)ccc1C1CCN(C(=O)N(C)C)CC1` [Example 35-8, 1-(6-(3-((4-(1-(Dimethylcarbamoyl)piperidin-4-yl)-3-ethylphenoxy)methyl)-5-methylthiophen-2-yl)pyridin-2-yl)-5-methyl-1H-pyrazole-4-carboxylic acid] was run?
A: ≤ 0.5 nM

Q: How did the EC50 turn out when `CCc1cc(OCc2cc(C)sc2-c2cccc(-n3ncc(C(=O)O)c3CC)n2)ccc1C1CCN(C(=O)C2CC2)CC1` [Example 35-9, 1-(6-(3-((4-(1-(Cyclopropanecarbonyl)piperidin-4-yl)-3-ethylphenoxy)methyl)-5-methylthiophen-2-yl)pyridin-2-yl)-5-ethyl-1H-pyrazole-4-carboxylic acid] was run?
A: ≤ 0.5 nM

Q: For `CCc1c(C(=O)O)cnn1-c1cccc(-c2sc(C)cc2COc2ccc(C3CCN(C(=O)C4CC4)CC3)cc2C)n1` [Example 35-10, 1-(6-(3-((4-(1-(Cyclopropanecarbonyl)piperidin-4-yl)-2-methylphenoxy)methyl)-5-methylthiophen-2-yl)pyridin-2-yl)-5-ethyl-1H-pyrazole-4-carboxylic acid], which EC50 is on record?
A: ≤ 0.5 nM

Q: For `Cc1cc(COc2ccc(C3CCN(C(=O)C4CC4)CC3)c(C3CC3)c2)c(-c2cccc(-n3ncc(C(=O)O)c3C(F)(F)F)n2)s1` [Example 35-12, 1-(6-(3-((4-(1-(Cyclopropanecarbonyl)piperidin-4-yl)-3-cyclopropylphenoxy)methyl)-5-methylthiophen-2-yl)pyridin-2-yl)-5-(trifluoromethyl)-1H-pyrazole-4-carboxylic acid], which EC50 is on record?
A: 1 nM
